Patent US7829304B2, “Compounds and related methods for mutant p53 reactivation” (Northwestern University, priority 2003, dated 2010)
“Also recorded” adds a separate entry of the source.

Assays:
[1] = system: Saos2-CMV cells (p53-null, vector-only control); test: Cellular growth studies on p53-null Saos2 control cells; assay type: cell-based, human
Experimental: (§1) Cellular growth studies were performed on Saos-2 cells, derived from a human osteosarcoma cancer cell line, according to the method described in Example 44. The cells had either no p53 (null) or mutant (mt) p53 at residues 175 and/or 281 (R175H and […], respectively). Selective arrest of mutant cells indicates good anticancer activity.
Cellular growth studies were performed on Saos2 cells. Human osteosarcoma Saos2 cells are devoid of endogenous p53 due to biallelic deletion of the p53 gene. Previously, a series of Saos2 cell lines were engineered to express several human p53 mutants that are commonly found in human cancers. The derivative Saos2 cell lines used in the present study included the following: 1) Saos2-CMV, which is the vector-only control cell line that is negative for p53 protein. 2) Saos2-175, which expresses the human mutant p53-R175H protein. […]
The cells were grown at 37° C. in Dulbecco's modified Eagle's medium (Cambrex, East Rutherford, N.J.) supplemented with 10% fetal bovine serum (Hyclone, Logan, Utah) under 5% CO2. […] The cells were microscopically analyzed during the course of treatment and the overall effectiveness of the drug treatment on cell growth and survival was assessed on day 7 by staining the cells with Giemsa Stain GS500 (SIGMA, St. Louis, Mo.). […]

[2] = system: Saos2 cell lines expressing mutant p53 (Saos2-175, Saos2-281); test: Cellular growth studies on Saos-2 cells expressing mutant p53; assay type: cell-based, human; conditions: for selective growth arrest/killing of cells expressing mutant p53 (in words): Saos-2 cells with mutant p53 versus p53-null cells
Experimental: as §1
Cellular growth studies were performed on Saos2 cells. Human osteosarcoma Saos2 cells are devoid of endogenous p53 due to biallelic deletion of the p53 gene. Previously, a series of Saos2 cell lines were engineered to express several human p53 mutants that are commonly found in human cancers. The derivative Saos2 cell lines used in the present study included the following: 1) Saos2-CMV, which is the vector-only control cell line that is negative for p53 protein. 2) Saos2-175, which expresses the human mutant p53-R175H protein. The 175H substitution disrupts the structure of the protein resulting in the loss of DNA binding and tumor suppressor function. This mutation is found in ˜6% of all cancers of diverse tumor types. 3) Saos2-273, which expressed the human mutant p53-R273H protein. The 273H substitution eliminates a DNA contact point resulting in the loss of DNA binding and tumor suppressor function. This mutation represents the second most common hot spot mutation and is found in nearly 8% of all cancers. 4) Saos2-281, which expresses the human mutant p53-D281G protein. This mutation disrupts a stabilizing salt bridge resulting in the loss of DNA binding and tumor suppressor function.
The cells were grown at 37° C. in Dulbecco's modified Eagle's medium (Cambrex, East Rutherford, N.J.) supplemented with 10% fetal bovine serum (Hyclone, Logan, Utah) under 5% CO2. The cells were plated at 1×10^6 per 10 cm tissue culture plates and treated with escalating doses of the indicated compounds (Table 1) for varying lengths of time. Routine concentrations of the synthesized compounds ranged from 1-75 μM. After 72-96 hours, the cells were refed with fresh medium containing the appropriate concentration of the compound. In addition, parallel cultures were prepared and maintained under identical conditions without drug treatment as negative controls. The cells were microscopically analyzed during the course of treatment and the overall effectiveness of the drug treatment on cell growth and survival was assessed on day 7 by staining the cells with Giemsa Stain GS500 (SIGMA, St. Louis, Mo.). Prima-1 was included in all experiments for comparison purposes. […] The few Saos2 mutant p53 cells remaining after treatment with compound 7 were quite large and flat, reminiscent of a differentiated cell.

| SMILES | selective growth arrest/killing of cells expressing mutant p53 (in words) [2] | also measured |
| --- | --- | --- |
| O=C1C2CCN(CC2)C1(CO)CO [PRIMA-1, reference compound] | – | toxic to p53-null cells at concentration ([1]; p53-null Saos-2 cells): 75 µM |
| CC(=O)OCC(N)C(=O)c1ccccc1.Cl (racemic) [Compound 7, 3-Acetoxy-1-oxo-1-phenylpropan-2-aminium chloride] | activity at lower concentrations, as compared to PRIMA-1; also recorded: efficiently and selectively inhibited the growth of the Saos2 cell lines expressing mutant p53; also recorded: particularly effective at selectively killing cells expressing R175H and R281G p53 mutants at lower concentrations than PRIMA-1 | effect on growth of CMV-only cells which lack p53 protein ([1]; Saos2-CMV, assessed on day 7 by Giemsa stain): no effect |
| CC(=O)OCC(N)(COC(C)=O)C(=O)c1ccccc1.Cl [Compound 4, 3-Acetoxy-2-(acetoxymethyl)-1-oxo-1-phenylpropan-2-aminium chloride] | activity at lower concentrations, as compared to PRIMA-1; also recorded: showed selectivity for R281G mutants | minimal effective concentration ([2]; Homo sapiens, 168 h, Mutant: 281, Saos-2 cells, concentration at which active, doses 1-75 μM, cell growth and survival assessed on day 7 by Giemsa stain): 10 µM |
| CC(=O)OCC(C)(N)C(=O)c1ccccc1.Cl (stereo not shown) [Compound 17, 2-Amino-2-methyl-3-oxo-3-phenylpropyl acetate hydrochloride] | eliminates the desired activity | – |
| CC(=O)OCC(N)C(=O)N1CCOCC1.Cl (stereo not shown) [Compound 15, 3-Acetoxy-1-morpholino-1-oxopropan-2-aminium chloride] | the desired activity is lost | – |
| CNC(COC(C)=O)C(=O)c1ccccc1.Cl (stereo not shown) [Compound 16, 2-(Methylamino)-3-oxo-3-phenylpropyl acetate hydrochloride] | – | selective growth arrest/killing of cells expressing mutant p53 (in words) ([2]; acetate hydrochloride): the desired activity is lost; also recorded: eliminates the desired activity |
| COC(=O)C(N)COC(C)=O.Cl (stereo not shown) [Compound 14, 3-Acetoxy-1-methoxy-1-oxopropan-2-aminium chloride] | the desired activity is lost | – |
| CC(=O)OC[C@@H](N)C(=O)c1ccccc1.Cl [Compound 8, (R)-3-Acetoxy-1-oxo-1-phenylpropan-2-aminium chloride] | improved activity over (±)-7 | – |
